Data on 13 compounds can be found in patent US7745636B2, “Hepatitis C virus inhibitors” (Bristol-Myers Squibb Company, priority 2006, dated 2010).

This assay concerns HCV 1b-377-neo replicon cells. Nature of the assay: HCV Replicon assay, HCV 1b-377-neo replicon cells. The class given is cell-based, HCV 1b genotype. Conditions: Hepatitis C virus, Table 2, read-out: Range (EC50 against HCV 1b). (In antiviral work, replicon cells carry a viral genome segment that copies itself.)
As for `COC(=O)N[C@H](C(=O)N1CCC[C@H]1c1nc(-c2cnc(-c3ccc(-c4cnc([C@@H]5CCCN5C(=O)[C@@H](NC(=O)OC)C(C)C)[nH]4)c(F)c3)nc2)c[nH]1)C(C)C` [Example D68, methyl ((1S)-1-(((2S)-2-(5-(2-fluoro-4-(5-(2-((2S)-1-((2S)-2-((methoxycarbonyl)amino)-3-methylbutanoyl)-2-pyrrolidinyl)-1H-imidazol-5-yl)-2-pyrimidinyl)phenyl)-1H-imidazol-2-yl)-1-pyrrolidinyl)carbonyl)-2-methylpropyl) carbamate], the EC50 lay within 0.001 to 0.999 nM.
For `COC(=O)N[C@@H](C(=O)N1CCC[C@H]1c1nc(-c2cnc(-c3ccc(-c4cnc([C@@H]5CCCN5C(=O)[C@H](NC(=O)OC)c5ccccc5)[nH]4)c(F)c3)nc2)c[nH]1)c1ccccc1` [Example D69, methyl ((1R)-2-((2S)-2-(5-(2-(3-fluoro-4-(2-((2S)-1-((2R)-2-((methoxycarbonyl)amino)-2-phenylacetyl)-2-pyrrolidinyl)-1H-imidazol-5-yl)phenyl)-5-pyrimidinyl)-1H-imidazol-2-yl)-1-pyrrolidinyl)-2-oxo-1-phenylethyl) carbamate], the EC50 was in the range of 0.001 to 0.999 nM.
In the case of `COC(=O)N[C@H](C(=O)N1CCC[C@H]1c1nc(-c2cnc(-c3ccc(-c4cnc([C@@H]5CCCN5C(=O)[C@@H](NC(=O)OC)[C@@H](C)OC)[nH]4)c(F)c3)nc2)c[nH]1)[C@@H](C)OC` [Example D70, methyl ((1S,2R)-1-(((2S)-2-(5-(2-fluoro-4-(5-(2-((2S)-1-(N-(methoxycarbonyl)-O-methyl-L-threonyl)-2-pyrrolidinyl)-1H-imidazol-5-yl)-2-pyrimidinyl)phenyl)-1H-imidazol-2-yl)-1-pyrrolidinyl)carbonyl)-2-methoxypropyl) carbamate], the EC50 was 0.001 to 0.999 nM.
On to `COC(=O)N[C@@H](C)C(=O)N1CCC[C@H]1c1nc(-c2cnc(-c3ccc(-c4cnc([C@@H]5CCCN5C(=O)[C@H](C)NC(=O)OC)[nH]4)cc3)nc2)c[nH]1` [Example D73, methyl ((1S)-2-((2S)-2-(5-(4-(5-(2-((2S)-1-(N-(methoxycarbonyl)-L-alanyl)-2-pyrrolidinyl)-1H-imidazol-5-yl)-2-pyrimi-dinyl)phenyl)-1H-imidazol-2-yl)-1-pyrrolidinyl)-1-methyl-2-oxoethyl)carbamate], for which the EC50 lay in the range of 0.001 to 0.999 nM.
Consider `COC(=O)N[C@H](C(=O)N1CCC[C@H]1c1nc(-c2cnc(-c3ccc(-c4cnc([C@@H]5CCCN5C(=O)[C@@H](NC(=O)OC)C(C)C)[nH]4)cc3)nc2)c[nH]1)C(C)C` [Example D74, methyl ((1S)-1-(((2S)-2-(5-(2-(4-(2-((2S)-1-((2S)-2-((methoxycarbonyl)amino)-3-methylbutanoyl)-2-pyrrolidinyl)-1H-imidazol-5-yl)phenyl)-5-pyrimidinyl)-1H-imidazol-2-yl)-1-pyrrolidinyl)carbonyl)-2-methylpropyl) carbamate], for which the concentration giving a half-maximal response (EC50) is 0.001 to 0.999 nM.
In the case of `COC(=O)N[C@H](C(=O)N1CCC[C@H]1c1nc(-c2cnc(-c3ccc(-c4cnc([C@@H]5CCCN5C(=O)[C@@H](NC(=O)OC)C5CC5)[nH]4)cc3)nc2)c[nH]1)C1CC1` [Example D75, methyl ((1S)-1-cyclopropyl-2-((2S)-2-(5-(2-(4-(2-((2S)-1-((2S)-2-cyclopropyl-2-((methoxycarbonyl)amino)acetyl)-2-pyrrolidinyl)-1H-imidazol-5-yl)phenyl)-5-pyrimidinyl)-1H-imidazol-2-yl)-1-pyrrolidinyl)-2-oxoethyl)carbamate], the EC50 fell in the range of 0.001 to 0.999 nM.
Regarding `CCN(CC)[C@@H](C(=O)N1CCC[C@H]1c1ncc(-c2ccc(-c3ncc(-c4c[nH]c([C@@H]5CCCN5C(=O)[C@@H](NC(=O)OC)C(C)C)n4)cn3)cc2)[nH]1)c1ccccc1` [Example D76, methyl ((1S)-1-(((2S)-2-(5-(2-(4-(2-((2S)-1-((2R)-2-(diethylamino)-2-phenylacetyl)-2-pyrrolidinyl)-1H-imidazol-5-yl)phenyl)-5-pyrimidinyl)-1H-imidazol-2-yl)-1-pyrrolidinyl)carbonyl)-2-methylpropyl) carbamate], the EC50 lay in the range of 0.001 to 0.999 nM.
`CCN(CC)[C@@H](C(=O)N1CCC[C@H]1c1ncc(-c2ccc(-c3ncc(-c4c[nH]c([C@@H]5CCCN5C(=O)[C@H](C)NC(=O)OC)n4)cn3)cc2)[nH]1)c1ccccc1` [Example D77, methyl ((1S)-2-((2S)-2-(5-(2-(4-(2-((2S)-1-((2R)-2-(diethylamino)-2-phenylacetyl)-2-pyrrolidinyl)-1H-imidazol-5-yl)phenyl)-5-pyrimidinyl)-1H-imidazol-2-yl)-1-pyrrolidinyl)-1-methyl-2-oxoethyl)carbamate]: the EC50 was in the range of 0.001 to 0.999 nM.
Take `COC(=O)N[C@H](C(=O)N1CCCC1c1ncc(-c2cc(C)c(-c3c(C)cc(-c4cnc([C@@H]5CCCN5C(=O)[C@@H](NC(=O)OC)C(C)C)[nH]4)cc3C)c(C)c2)[nH]1)C(C)C` (stereo partly shown) [Example F71]: the half-maximal effective concentration (EC50) was in the range of 0.001 to 0.999 nM.
The same measure for `COC(=O)N[C@@H](C)C(=O)N(C)[C@@H](C)c1ncc(-c2ccc(-c3ccc(-c4[nH]c([C@@H]5CCCN5C(=O)[C@H](C)NC(=O)OC)nc4C(F)(F)F)cc3)cc2)[nH]1` [Example J42.a, methyl ((1S)-2-((2S)-2-(5-(4′-(2-((1S)-1-((N-(methoxycarbonyl)-L-alanyl)(methyl)amino)ethyl)-1H-imidazol-5-yl)-4-biphenylyl)-4-(trifluoromethyl)-1H-imidazol-2-yl)-1-pyrrolidinyl)-1-methyl-2-oxoethyl)carbamate]: 0.001 to 0.999 nM; for `COC(=O)N[C@@H](C(=O)N1CCC[C@H]1c1ncc(-c2cnc(-c3ccc(-c4[nH]c([C@@H]5CCCN5C(=O)[C@H](NC(=O)OC)c5ccccc5)nc4C(F)(F)F)cc3)nc2)[nH]1)c1ccccc1` [Example J46, methyl ((1R)-2-((2S)-2-(5-(4-(5-(2-((2S)-1-((2R)-2-((methoxycarbonyl)amino)-2-phenylacetyl)-2-pyrrolidinyl)-1H-imidazol-5-yl)-2-pyrimidinyl)phenyl)-4-(trifluoromethyl)-1H-imidazol-2-yl)-1-pyrrolidinyl)-2-oxo-1-phenylethyl) carbamate]: 0.001 to 0.999 nM.
Take `CCN(CC)[C@@H](C(=O)N1CCC[C@H]1c1ncc(-c2cnc(-c3ccc(-c4[nH]c([C@@H]5CCCN5C(=O)[C@@H](c5ccccc5)N(CC)CC)nc4C(F)(F)F)cc3)nc2)[nH]1)c1ccccc1` [Example J47, (1R)-2-((2S)-2-(5-(4-(5-(2-((2S)-1-((2R)-2-(diethylamino)-2-phenylacetyl)-2-pyrrolidinyl)-1H-imidazol-5-yl)-2-pyrimidinyl)phenyl)-4-(trifluoromethyl)-1H-imidazol-2-yl)-1-pyrrolidinyl)-N,N-diethyl-2-oxo-1-phenylethanamine]: the EC50 was in the range of 0.001 to 0.999 nM.
In the case of `COC(=O)N[C@H](C(=O)N1CCC[C@H]1c1ncc(-c2cnc(-c3ccc(-c4[nH]c([C@@H]5CCCN5C(=O)[C@@H](NC(=O)OC)C(C)C)nc4C(F)(F)F)cc3)nc2)[nH]1)C(C)C` [Example J48, methyl ((1S)-1-(((2S)-2-(5-(2-(4-(2-((2S)-1-((2S)-2-((methoxycarbonyl)amino)-3-methylbutanoyl)-2-pyrrolidinyl)-4-(trifluoromethyl)-1H-imidazol-5-yl)phenyl)-5-pyrimidinyl)-1H-imidazol-2-yl)-1-pyrrolidinyl)carbonyl)-2-methylpropyl) carbamate], the EC50 lay in the range of 0.001 to 0.999 nM.

The EC50 is the concentration that produces a half-maximal response.
